Experimental data from patent publication US20250288570A1, “TREATMENT OF NEUROLOGICAL DISORDERS” (Praxis Precision Medicines, Inc., priority 2022, published 2025).
Entries after “also recorded” stand apart in the source; their conditions may differ.

Columns and labels:
[1] = tested on: locomotor activity of male CD-1 mice; assay: Spontaneous locomotor activity (sLMA) test, Example 8; assay type: in vivo, mouse
Method: The spontaneous locomotor activity (sLMA) test is a validated model for evaluating the potential effects of a compound on motor function. This study evaluated the effect of Compound 1 on locomotor activity of male CD-1 mice. Doses of Compound 1 used were 3 mg/kg, 5.6 mg/kg, 10 mg/kg and 20 mg/kg administered orally (p.o.).
Male CD-1 mice (Vital River, Beijing, China) approximately 6 weeks old were used for the study. Body weights were between 25 g and 35 g at the time of experiment.
Treatment was conducted using Compound 1 and 35% 2-hydroxypropyl-β-cyclodextrin (35% HPBCD, used as a negative control). Compound 1 stock solution was prepared fresh each experiment day in 35% HPBCD and protected from light. The stock solution was diluted with vehicle for lower doses.
The spontaneous locomotor activity (sLMA) test for each study was carried out over three days, with mice from each treatment group tested each day. The treatment groups included mice dosed with vehicle (35% HPBCD) and with Compound 1 at the dose of 3 mg/kg, 5.6 mg/kg, 10 mg/kg and 20 mg/kg. Mice were randomly assigned into one of the treatment groups.
A single dose of Compound 1 (3 mg/kg, 5.6 mg/kg, 10 mg/kg and 20 mg/kg) or vehicle (35% HPBCD) was administered to mice via oral gavage 30 minutes prior to testing. Immediately prior to conducting the sLMA test, a brief neurological assessment was performed. Each animal was visually assessed for sedation and ataxia.
Activity was recorded by overhead cameras and was analyzed offline. Video tracking analysis software was used to determine total distance travelled in millimeters. Distance travelled was also calculated in 5-minute bins.
All statistical analyses were conducted using GraphPad Prism 9.3. Means were combined and standard error was calculated using the Satterthwaite Approximation to combined standard deviations. […] TD50 and TC50 values were calculated from these fit curves.

[2] = tested on: psychomotor seizures induced by 6-Hz electrical stimulation in CD-1 mice; assay: 6-Hz psychomotor seizure model (32 and 44 mA); assay type: in vivo, mouse
Description: The 6-Hz test is a validated model of focal seizures for evaluating the anti-seizure potential of compounds. The 6-Hz seizure model can be performed at different stimulation intensities (32 or 44 mA), with the higher intensity (44 mA) used as a model of pharmacoresistant seizures. The positive control valproate is an approved anti-seizure medicine (ASM).
This study evaluated the efficacy of Compound 1 in attenuating psychomotor seizures induced by 6-Hz electrical stimulation at two different stimulation intensities (32 and 44 mA) in wild-type CD-1 mice. Psychomotor seizures are defined as the expression of at least one of the following behaviors: stun/immobility, forelimb clonus, straub tail or lateral head movement within 30 seconds of the stimulus. Protection is defined as a complete absence of the above behaviors within 30 seconds of the stimulus. Doses of Compound 1 used were 1 mg/kg, 3 mg/kg and 6 mg/kg administered orally. Valproate (600 mg/kg, administered intraperitoneally) was used as a positive control.
Male CD-1 mice (Charles River Laboratories; St. Constant, Quebec, CAN) were used for the study. Body weights at the time the experiment was carried out were 30-40 grams. The mice were group-housed in polycarbonate cages according to standard operating procedures. Animals were maintained on a 12-hour light/12 hour dark cycle, with all experimental activities occurring during the light phase. Food and water were available ad libitum. Mice acclimated to the test facility for at least 72 hours prior to testing.
Treatment was conducted using Compound 1 and 35% 2-hydroxypropyl-β-cyclodextrin (35% HPBCD, used as a negative control). Compound 1 stock solution was prepared fresh each experiment day in 35% HPBCD. […] Valproate was prepared fresh each experiment day in a vehicle of saline and dosed at 10 mL/kg.
Mice were administered vehicle (35% HPBCD), a single dose of Compound 1 (1 mg/kg, 3 mg/kg or 6 mg/kg) or valproate (600 mg/kg). Vehicle and Compound 1 were administered via oral gavage 30 minutes prior to […]. Valproate was administered as an intraperitoneal injection 60 minutes prior to the electrical stimulus.
Immediately prior to conducting the 6-Hz seizure test, a brief neurological assessment was performed. Each animal was visually assessed and received a score from 0 to 3 according to the following scoring system: neurological score of 0 corresponds to a normal status; neurological score of 1 corresponds to a modest decrease in spontaneous activity; neurological score of 2 corresponds to a marked decrease in spontaneous activity; and neurological score of 3 corresponds to loss of righting reflex.
Corneal electrodes moistened with saline (ECT unit 57800; Ugo Basile) were used to deliver the electrical stimulus (6-Hz, 0.2 millisecond pulse width, 3 seconds duration). The current delivered was either 32 mA or 44 mA. Immediately after the electrical stimulus, each mouse was monitored continuously for 30 seconds by an observer blinded to the treatment group. […] Mice were scored for the presence or absence of each seizure behavior, with a maximum total score of 4. […] At the end of the 6-Hz seizure test, plasma and brain samples were collected.
Mice were anesthetized with isoflurane, whole blood was collected via cardiac puncture and brains were harvested. […] Plasma and brain samples were stored at −80° C. and analyzed to determine levels of Compound 1. […]

[3] = tested on: multiple NaV isoforms and orthologs; assay: ATX-II induced persistent INa of multiple NaV isoforms and orthologs; assay type: cell-based
human Nav1.6 [4] = biological target: T1, human Nav1.6 (Homo sapiens, UniProt Q9UQD0); assay: ATX-II activated late (persistent) INa block, automated patch clamp in HEK cells; assay type: cell-based
T1 construct: HEK-293 cell lines stably expressing human Nav1.6 (NP_055006) were used; expressed in transfected cells
T1 sequence (Q9UQD0 whole entry): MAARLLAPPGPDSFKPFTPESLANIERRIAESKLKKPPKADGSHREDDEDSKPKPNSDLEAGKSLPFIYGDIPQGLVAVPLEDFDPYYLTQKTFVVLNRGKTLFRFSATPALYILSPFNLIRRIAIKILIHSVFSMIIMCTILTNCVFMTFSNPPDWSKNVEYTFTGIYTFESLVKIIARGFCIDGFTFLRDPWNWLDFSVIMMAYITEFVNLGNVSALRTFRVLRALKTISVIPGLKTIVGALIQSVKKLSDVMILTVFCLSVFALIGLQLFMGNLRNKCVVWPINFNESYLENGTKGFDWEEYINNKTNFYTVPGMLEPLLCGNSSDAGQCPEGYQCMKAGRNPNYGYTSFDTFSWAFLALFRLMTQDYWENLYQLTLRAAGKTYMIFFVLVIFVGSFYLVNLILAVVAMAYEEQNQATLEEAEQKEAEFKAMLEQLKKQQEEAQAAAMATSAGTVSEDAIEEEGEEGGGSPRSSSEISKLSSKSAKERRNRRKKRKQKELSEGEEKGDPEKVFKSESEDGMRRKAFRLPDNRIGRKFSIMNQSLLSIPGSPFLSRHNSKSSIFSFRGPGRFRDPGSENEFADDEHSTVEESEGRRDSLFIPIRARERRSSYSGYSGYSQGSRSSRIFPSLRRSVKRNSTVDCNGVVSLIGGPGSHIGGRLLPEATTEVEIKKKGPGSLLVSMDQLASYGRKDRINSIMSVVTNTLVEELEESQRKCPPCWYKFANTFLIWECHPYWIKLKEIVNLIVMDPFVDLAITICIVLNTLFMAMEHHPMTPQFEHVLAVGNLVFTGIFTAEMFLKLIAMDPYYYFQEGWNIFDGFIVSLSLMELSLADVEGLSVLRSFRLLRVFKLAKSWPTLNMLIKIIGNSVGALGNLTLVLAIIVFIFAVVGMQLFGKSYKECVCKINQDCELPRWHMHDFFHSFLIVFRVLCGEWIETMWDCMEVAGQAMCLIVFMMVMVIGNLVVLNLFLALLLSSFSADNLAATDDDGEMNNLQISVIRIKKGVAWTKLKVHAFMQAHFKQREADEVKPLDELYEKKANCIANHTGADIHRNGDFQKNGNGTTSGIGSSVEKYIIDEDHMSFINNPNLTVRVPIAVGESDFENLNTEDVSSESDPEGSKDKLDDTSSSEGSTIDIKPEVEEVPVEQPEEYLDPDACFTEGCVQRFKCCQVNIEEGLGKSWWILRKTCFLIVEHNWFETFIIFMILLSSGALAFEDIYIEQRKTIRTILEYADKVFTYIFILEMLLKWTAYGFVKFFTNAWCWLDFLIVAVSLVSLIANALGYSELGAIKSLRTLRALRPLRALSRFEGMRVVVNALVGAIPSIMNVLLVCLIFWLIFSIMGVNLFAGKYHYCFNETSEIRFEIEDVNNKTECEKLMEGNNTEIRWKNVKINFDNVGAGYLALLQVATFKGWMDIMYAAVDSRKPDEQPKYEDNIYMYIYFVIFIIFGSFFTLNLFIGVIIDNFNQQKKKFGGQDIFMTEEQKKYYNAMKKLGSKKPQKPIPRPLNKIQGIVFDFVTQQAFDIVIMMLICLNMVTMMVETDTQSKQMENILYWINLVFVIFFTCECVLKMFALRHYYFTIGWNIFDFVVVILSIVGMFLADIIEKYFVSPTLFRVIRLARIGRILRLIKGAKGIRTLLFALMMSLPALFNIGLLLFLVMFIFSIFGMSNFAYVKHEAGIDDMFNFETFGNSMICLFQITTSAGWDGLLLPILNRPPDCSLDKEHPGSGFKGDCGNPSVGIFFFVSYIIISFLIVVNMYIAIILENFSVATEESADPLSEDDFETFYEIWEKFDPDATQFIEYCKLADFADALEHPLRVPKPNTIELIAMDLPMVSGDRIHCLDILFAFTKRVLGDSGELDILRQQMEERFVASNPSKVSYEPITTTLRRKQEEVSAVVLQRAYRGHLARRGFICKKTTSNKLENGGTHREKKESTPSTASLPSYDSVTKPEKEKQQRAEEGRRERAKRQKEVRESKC

human Nav1.6 [5] = biological target: T1, human Nav1.6; assay: Peak INa tonic block (TB), automated patch clamp in HEK cells; assay type: cell-based; conditions: ratio of peak INa (TB) to persistent INa IC50

CCOC(F)(F)c1nnc2ccc(-c3cnc(OCC(F)(F)F)c(F)c3)cn12 [Compound 1]
sedation or ataxia (in words) ([1]; 3 mg/kg and 5.6 mg/kg): No sedation or ataxia was observed
mice with sedation and/or ataxia ([1]; 10 mg/kg): five
mice with sedation and/or ataxia ([1]; 20 mg/kg): eight
sLMA TD50 ([1]; p.o., distance travelled): 10.4 mg/kg
seizure score (in words) ([2]; 6 mg/kg p.o., 32 and 44 mA): significantly reduced the seizure score; also recorded: reduced seizure scores compared to vehicle
incidence of seizures (in words) ([2]; 6 mg/kg p.o., 32 mA): significantly reduced the incidence of seizures
neurological scores ([2]; any dose of Compound 1 (1, 3, 6 mg/kg)): all neurological scores were zero; also recorded: normal
inhibition of persistent INa at other isoforms and orthologs (in words) [3]: inhibits ATX-II induced persistent INa expressed by multiple NaV isoforms and orthologs
persistent INa preference to TB (human Nav1.6 [4]): 68 ×
potency for persistent INa relative to the other tested INa blocking agents (human Nav1.6 [4]): at least 550 ×
inhibition of and preference for persistent INa (in words) (human Nav1.6 [4]; hNav1.6): concentration dependent inhibition of late sodium current; also recorded: preference for persistent INa relative to peak INa for all assay conditions; also recorded: potently inhibited ATX-II-induced persistent INa; also recorded: potent inhibition of persistent INa; also recorded: potent inhibitor of persistent INa; also recorded: increased potency for persistent INa relative to standard NaV-targeting ASMs
Persistent INa Hill slope (human Nav1.6 [4]; hNav1.6 in HEK cells): (1.4)
Peak INa TB Ratio to Pers. INa (human Nav1.6 [5]): 68
